Active and inactive are the calls of the source. No cut-off for these calls is given here.
What was measured:
THP-1 [1] = experiment: Antiinflammatory activity in PMA-differentiated human THP1 cells assessed as inhibition of LPS-induced TNF-alpha production at 1 uM after 24 hrs by ELISA relative to control; type: functional; details: THP-1, 24 h
THP-1 [2] = experiment: Antiinflammatory activity in PMA-differentiated human THP1 cells assessed as inhibition of LPS-induced TNF-alpha production at 10 uM after 24 hrs by ELISA relative to control; type: functional; details: THP-1, 24 h
THP-1 [3] = experiment: Antiinflammatory activity in PMA-differentiated human THP1 cells assessed as inhibition of LPS-induced IL-6 production at 1 uM after 24 hrs by ELISA relative to control; type: functional; details: THP-1, 24 h
THP-1 [4] = experiment: Antiinflammatory activity in PMA-differentiated human THP1 cells assessed as inhibition of LPS-induced IL-6 production at 10 uM after 24 hrs by ELISA relative to control; type: functional; details: THP-1, 24 h
MIA PaCa-2 = experiment: Antiproliferative activity against human MIAPaCa2 cells at 10 uM relative to control; type: functional
ACHN (Homo sapiens) [5] = experiment: Antiproliferative activity against human ACHN cells at 1 uM relative to control
ACHN (Homo sapiens) [6] = experiment: Antiproliferative activity against human ACHN cells at 10 uM relative to control
[7] = system: MDA-MB-231 (Homo sapiens); experiment: Antiproliferative activity against human MDA-MB-231 cells at 1 uM relative to control; details: mda-mb-231, 1 µM
[8] = system: MIA PaCa-2 (Homo sapiens); experiment: Antiproliferative activity against human MIA PaCa-2 cells at 1 uM relative to control
THP-1 (Homo sapiens) [9] = experiment: Antiinflammatory activity in human THP1 cells assessed as inhibition of IL-6 production at 10 uM relative to control; set-up: scale not given: the % may be the effect or the level left
THP-1 (Homo sapiens) [10] = experiment: Antiinflammatory activity in human THP1 cells assessed as inhibition of TNF-alpha production at 10 uM relative to control; set-up: scale not given: the % may be the effect or the level left
THP-1 [11] = experiment: Antiinflammatory activity in PMA-differentiated human THP1 cells assessed as inhibition of LPS-induced TNF-alpha production after 24 hrs by ELISA; type: functional, cell-based; details: THP-1, 24 h
THP-1 [12] = experiment: Antiinflammatory activity in PMA-differentiated human THP1 cells assessed as inhibition of LPS-induced IL-6 production after 24 hrs by ELISA; type: functional, cell-based; details: THP-1, 24 h
THP-1 [13] = experiment: Cytotoxicity against PMA-differentiated human THP1 cells assessed as reduction in cell viability after 4.5 hrs by MTS assay; type: cell-based; details: THP-1, 4.5 h
ACHN = experiment: Antiproliferative activity against human ACHN cells after 48 hrs by propidium iodide staining based fluorometry; type: functional, cell-based
PANC-1 = experiment: Antiproliferative activity against human PANC1 cells after 48 hrs by propidium iodide staining based fluorometry; type: functional, cell-based; details: PANC-1, 48 h
HCT-116 = experiment: Antiproliferative activity against human HCT116 cells after 48 hrs by propidium iodide staining based fluorometry; type: functional, cell-based; details: HCT-116, 48 h
NCI-H460 = experiment: Antiproliferative activity against human H460 cells after 48 hrs by propidium iodide staining based fluorometry; type: functional, cell-based; details: NCI-H460, 48 h
Calu-1 = experiment: Antiproliferative activity against human Calu1 cells after 48 hrs by propidium iodide staining based fluorometry; type: functional, cell-based; details: Calu-1, 48 h
PBMC = experiment: Antiinflammatory activity in human PBMC assessed as inhibition of LPS-induced TNF-alpha production incubated for 30 mins followed by LPS addition measured after 4.5 hrs by ELISA; type: functional, cell-based
[14] = system: MDA-MB-231 (Homo sapiens); experiment: Antiproliferative activity against human MDA-MB-231 cells at 10 uM relative to control
A-549 (Homo sapiens) = experiment: Antiproliferative activity against human A-549 cells at 10 uM relative to control

| SMILES | inhibition at 1 µM (THP-1 [1]) [%] | inhibition at 10 µM (THP-1 [2]) [%] | inhibition at 1 µM (THP-1 [3]) [%] | inhibition at 10 µM (THP-1 [4]) [%] | Activity (MIA PaCa-2) [%] | Activity (ACHN (Homo sapiens) [5]) [%] | Activity [7] [%] | Activity [8] [%] | Activity (THP-1 (Homo sapiens) [9]) [%] | Activity (THP-1 (Homo sapiens) [10]) [%] | Activity [14] [%] | further results |
| --- | --- | --- | --- | --- | --- | --- | --- | --- | --- | --- | --- | --- |
| Cn1c(=O)c2c(c3ccccc31)OC(N)=C(C#N)C2c1ccc(Cl)cc1 (configuration not stated) | 0 | 0 | 0 | 75 | 63 | 45 | 0 | 21 | 75 | 42 | – | Activity (ACHN (Homo sapiens) [6]): 69% |
| Cn1c(=O)c2c(c3ccccc31)OC(N)=C(C#N)C2c1ccc(O)cc1 (configuration not stated) | 0 | 0 | 0 | 13 | 83 | 55 | 23 | 55 | 0 | 0 | 77 | IC50 (THP-1 [11]): 10 µM; IC50 (THP-1 [12]): 4 µM; IC50 (THP-1 [13]): 30 µM; IC50 (ACHN): 1.8 µM; IC50 (PANC-1): 1.9 µM; IC50 (HCT-116): 0.6 µM; IC50 (NCI-H460): 1.2 µM; IC50 (Calu-1): 1.1 µM; inhibition (PBMC): inactive |
| CN(C)c1ccc(C2C(C#N)=C(N)Oc3c2c(=O)n(C)c2ccccc32)cc1 (configuration not stated) | 0 | 0 | 0 | 10 | 31 | 41 | 20 | 34 | 0 | 0 | 22 | – |
| Cn1c(=O)c2c(c3ccccc31)OC(N)=C(C#N)C2c1ccccc1[N+](=O)[O-] (configuration not stated) | 0 | 0 | 0 | 78 | 51 | 49 | 0 | 35 | 78 | 36 | – | Activity (ACHN (Homo sapiens) [6]): 68%; Activity (A-549 (Homo sapiens)): 36% |
| Cn1c(=O)c2c(c3ccccc31)OC(N)=C(C#N)C2c1c2ccccc2cc2ccccc12 (configuration not stated) | 0 | 0 | 0 | 10 | 66 | 25 | 19 | 40 | 0 | 0 | 69 | – |
| COc1ccc(C2C(C#N)=C(N)Oc3c2c(=O)n(C)c2ccccc32)cc1OC (configuration not stated) | 0 | 0 | 0 | 23 | 50 | 38 | 20 | 40 | 43 | 0 | 24 | – |
| COc1ccc(C2C(C#N)=C(N)Oc3c2c(=O)n(C)c2ccccc32)cc1 (configuration not stated) | 0 | 0 | 0 | 73 | 84 | 78 | 70 | 80 | 77 | 0 | 81 | IC50 (THP-1 [11]): 12.8 µM; IC50 (THP-1 [12]): 1.7 µM; IC50 (THP-1 [13]): 30 µM; IC50 (ACHN): > 20 µM; IC50 (PANC-1): > 20 µM; IC50 (HCT-116): > 20 µM; IC50 (NCI-H460): > 20 µM; IC50 (Calu-1): > 20 µM; inhibition (PBMC): inactive |
| COc1ccccc1C1C(C#N)=C(N)Oc2c1c(=O)n(C)c1ccccc21 (configuration not stated) | 0 | 0 | 0 | 14 | 21 | 37 | 22 | 24 | 32 | 0 | 18 | – |
| C[C@@H]1C[C@H]2[C@@H]3CCC4=CC(=O)C=C[C@]4(C)[C@@]3(F)[C@@H](O)C[C@]2(C)[C@@]1(O)C(=O)CO [DEXAMETHASONE] | 40 | – | 58 | – | – | – | – | – | – | – | – | – |
| CSc1ccc(C2C(C#N)=C(N)Oc3c2c(=O)n(C)c2ccccc32)cc1 (configuration not stated) | 0 | 0 | 0 | 0 | 17 | 0 | 0 | 16 | 37 | 28 | 10 | – |
| Cn1c(=O)c2c(c3ccccc31)OC(N)=C(C#N)C2c1cccc(Cl)c1 (configuration not stated) | 0 | 0 | 0 | 74 | 38 | 81 | 53 | 63 | 74 | 44 | – | IC50 (THP-1 [11]): 0.5 µM; IC50 (THP-1 [12]): 0.2 µM; IC50 (THP-1 [13]): > 10 µM; IC50 (ACHN): 0.1 µM; IC50 (PANC-1): 1 µM; IC50 (HCT-116): 0.3 µM; IC50 (NCI-H460): 0.3 µM; IC50 (Calu-1): 0.5 µM; IC50 (PBMC): 1.8 µM |
| Cn1c(=O)c2c(c3ccccc31)OC(N)=C(C#N)C2c1cccc(Oc2ccccc2)c1 (configuration not stated) | 18 | 0 | 0 | 70 | 72 | 69 | 47 | 66 | 52 | 34 | 51 | IC50 (THP-1 [11]): 0.2 µM; IC50 (THP-1 [12]): 0.2 µM; IC50 (THP-1 [13]): 11 µM; IC50 (ACHN): 3.4 µM; IC50 (PANC-1): 4.7 µM; IC50 (HCT-116): 5.1 µM; IC50 (NCI-H460): 1.4 µM; IC50 (Calu-1): 1.8 µM; IC50 (PBMC): 0.2 µM; inhibition (PBMC): Dose-dependent effect; Activity (A-549 (Homo sapiens)): 67% |
| CCOc1cc(C2C(C#N)=C(N)Oc3c2c(=O)n(C)c2ccccc32)ccc1O (configuration not stated) | 0 | 0 | 0 | 0 | 68 | 6 | 12 | 27 | – | 0 | 88 | – |
| Cn1c(=O)c2c(c3ccccc31)OC(N)=C(C#N)C2c1c[nH]c2ccccc12 (configuration not stated) | 0 | 0 | 0 | 8 | 77 | 27 | 16 | 18 | – | 0 | 67 | IC50 (THP-1 [11]): 11 µM; IC50 (THP-1 [12]): 1.4 µM; IC50 (THP-1 [13]): 6.8 µM; IC50 (ACHN): > 20 µM; IC50 (PANC-1): > 20 µM; IC50 (HCT-116): > 20 µM; IC50 (NCI-H460): > 20 µM; IC50 (Calu-1): > 20 µM; inhibition (PBMC): inactive |
| Cn1c(=O)c2c(c3ccccc31)OC(N)=C(C#N)C2c1cccc(O)c1 (configuration not stated) | 5 | 0 | 0 | 0 | 29 | 0 | 0 | 17 | 11 | 4 | 12 | – |
| COc1cccc(C2C(C#N)=C(N)Oc3c2c(=O)n(C)c2ccccc32)c1 (configuration not stated) | 0 | 0 | 0 | 70 | 75 | 67 | 66 | 76 | – | 0 | 75 | Activity (ACHN (Homo sapiens) [6]): 73% |
| Cn1c(=O)c2c(c3ccccc31)OC(N)=C(C#N)C2c1ccccc1Cl (configuration not stated) | 0 | 0 | 0 | 0 | 69 | 48 | 0 | 26 | 0 | 12 | – | – |
